Experimental data from patent US10538521B2, “Pyrimidine derivative having antimalarial activity” (CARNA BIOSCIENCES, INC., priority 2016, dated 2020).
Like-named read-outs stand apart in the source and are kept apart here.

Experiments:
[1] = system: K1 strain, a drug resistant strain of Plasmodium falciparum; assay: In vitro antimalarial assay (p-LDH, Malstat), K1 strain; format: cell-based; settings: read-out: Antimalarial activity (IC50 value), Strain K1
Outline: (§1)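 P. falciparum FCR3 and K1 cultured in human erythrocytes (RPMI 1640, 10% human plasma; 2% hematocrit, 0.5 or 1% parasitaemia) with compound at 12.5 to 0.0001 μM final for 72 h at 37° C (3% O2-4% CO2-93% N2). Growth read as p-LDH activity (Malstat/NBT-PES, A655 nm) after freeze-thaw; IC50 from concentration-response curve.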

[2] = system: FCR3 strain, a drug sensitive strain of Plasmodium falciparum; assay: In vitro antimalarial assay (p-LDH, Malstat), FCR3 strain; format: cell-based; settings: read-out: Antimalarial activity (IC50 value), Strain FCR3
Outline: as §1

[3] = P. falciparum K1 (drug resistant), 72 h culture, p-LDH readout
[4] = P. falciparum FCR3 (drug sensitive), 72 h culture, p-LDH readout

| Structure (SMILES) | IC50 [1, 3] | IC50 [2, 4] | IC50 ([1]; K1, 72 h) | IC50 ([2]; FCR3, 72 h) |
| --- | --- | --- | --- | --- |
| CCc1ccnc(Nc2nc(Nc3ccn4ccnc4c3)cc(N3CC[C@H](N(C)C)C3)n2)c1 [Example 126, (S)-6-(3-(dimethylamino)pyrrolidin-1-yl)-N2-(4-ethylpyridin-2-yl)-N4-(imidazo[1,2-a]pyridin-7-yl)pyrimidine-2,4-diamine] | < 100 nM | < 100 nM |  |  |
| c1ccc(COc2ccc(Nc3nc(Nc4ccn5ccnc5c4)cc(N4CCOCC4)n3)cn2)cc1 [Example 91, N2-(6-(benzyloxy)pyridin-3-yl)-N4-(imidazo[1,2-a]pyridin-7-yl)-6-morpholinopyrimidine-2,4-diamine] | 100 to 1000 nM | < 100 nM |  |  |
| COc1ccc(Nc2nc(Nc3ccn4ccnc4c3)cc(N3CCOCC3)n2)cn1 [Example 1, N4-(Imidazo[1,2-a]pyridin-7-yl)-N2-(6-methoxypyridin-3-yl)-6-morpholinopyrimidine-2,4-diamine] | < 100 nM | < 100 nM |  |  |
| CN(C)CCc1cccc(Nc2nc(Nc3ccn4ccnc4c3)cc(N3CCCC3)n2)n1 [Example 172, N2-{6-[2-(dimethylamino)ethyl]pyridin-2-yl}-N4-(imidazo[1,2-a]pyridin-7-yl)-6-(pyrrolidin-1-yl)pyrimidine-2,4-diamine] | 100 to 1000 nM | < 100 nM |  |  |
| Cc1ccc(Nc2nc(Nc3ccn4ccnc4c3)cc(N(C)C)n2)cn1 [Example 83, N4-(imidazo[1,2-a]pyridin-7-yl)-N6,N6-dimethyl-N2-(6-methylpyridin-3-yl)pyrimidine-2,4,6-triamine] | 1000 to 10000 nM | 100 to 1000 nM |  |  |
| Cc1cc(C)nc(Nc2nc(Nc3ccn4ccnc4c3)cc(N3CCC(O)CC3)n2)c1 [Example 130, 1-(2-((4,6-dimethylpyridin-2-yl)amino)-6-(imidazo[1,2-a]pyridin-7-ylamino)pyrimidin-4-yl)piperidin-4-ol] | < 100 nM | < 100 nM |  |  |
| c1cncc(Nc2nc(Nc3ccn4ccnc4c3)cc(N3CCOCC3)n2)c1 [Example 4, N4-(Imidazo[1,2-a]pyridin-7-yl)-6-morpholino-N2-(pyridin-3-yl)pyrimidine-2,4-diamine] | 100 to 1000 nM | 100 to 1000 nM |  |  |
| Cc1cc(C)nc(Nc2nc(Nc3ccn4ccnc4c3)cc(N3CCCC(C)C3)n2)c1 (centres unmarked) [Example 184, N2-(4,6-dimethylpyridin-2-yl)-N4-(imidazo[1,2-a]pyridin-7-yl)-6-(3-methylpiperidin-1-yl) pyrimidine-2,4-diamine] | 100 to 1000 nM | 100 to 1000 nM |  |  |
| c1cc(Nc2nc(Nc3ccn4ccnc4c3)cc(N3CCOCC3)n2)nc(C2CC2)c1 [Example 110, N2-(6-cyclopropylpyridin-2-yl)-N4-(imidazo[1,2-a]pyridin-7-yl)-6-morpholinopyrimidine-2,4-diamine] | 100 to 1000 nM | < 100 nM |  |  |
| CC(C)COc1cccc(Nc2nc(Nc3ccn4ccnc4c3)cc(N3CCCC3)n2)n1 [Example 158, N4-(imidazo[1,2-a]pyridin-7-yl)-N2-(6-isobutoxypyridin-2-yl)-6-(pyrrolidin-1-yl)pyrimidine-2,4-diamine] | 100 to 1000 nM | < 100 nM |  |  |
| CC(C)(C)COc1ccc(Nc2nc(Nc3ccn4ccnc4c3)cc(N3CCOCC3)n2)cn1 [Example 65, N4-(imidazo[1,2-a]pyridin-7-yl)-6-morpholino-N2-(6-(neopentyloxy)pyridin-3-yl)pyrimidine-2,4-diamine] | 100 to 1000 nM | 100 to 1000 nM |  |  |
| Cc1cc(C)nc(Nc2nc(Nc3ccn4ccnc4c3)cc(N(C)C)n2)c1 [Example 84, N2-(4,6-dimethylpyridin-2-yl)-N4-(imidazo[1,2-a]pyridin-7-yl)-N6,N6-dimethylpyrimidine-2,4,6-triamine] | < 100 nM | < 100 nM |  |  |
| Cc1cc(C)nc(Nc2nc(Nc3ccn4ccnc4c3)cc(NN3CCCCC3)n2)c1 [Example 198, N2-(4,6-dimethylpyridin-2-yl)-N4-(imidazo[1,2-a]pyridin-7-yl)-N6-(piperidin-1-yl)pyrimidine-2,4,6-triamine] | 100 to 1000 nM | < 100 nM |  |  |
| CCc1ccnc(Nc2nc(Nc3ccn4ccnc4c3)cc(N3CCN(C(=O)OC(C)(C)C)[C@H](C)C3)n2)c1 [Example 100, (R)-tert-butyl 4-(2-((4-ethylpyridin-2-yl)amino)-6-(imidazo[1,2-a]pyridin-7-ylamino)pyrimidin-4-yl)-2-methylpiperazine-1-carboxylate] | 100 to 1000 nM | 100 to 1000 nM |  |  |
| Cc1cccc(Nc2nc(Nc3ccn4ccnc4c3)cc(N3CCN(C)[C@@H](C)C3)n2)n1 [Example 40, (S)-6-(3,4-dimethylpiperazin-1-yl)-N4-(imidazo[1,2-a]pyridin-7-yl)-N2-(6-methylpyridin-2-yl)pyrimidine-2,4-diamine] | 1000 to 10000 nM | 1000 to 10000 nM |  |  |
| Cc1ccc(Nc2nc(Nc3ccn4ccnc4c3)cc(N3CCOCC3)n2)cn1 [Example 60, N4-(imidazo[1,2-a]pyridin-7-yl)-N2-(6-methylpyridin-3-yl)-6-morpholinopyrimidine-2,4-diamine] | < 100 nM | < 100 nM |  |  |

| Structure (SMILES) | IC50 [1, 3] | IC50 [2, 4] | IC50 ([1]; K1, 72 h) | IC50 ([2]; FCR3, 72 h) |
| --- | --- | --- | --- | --- |
| Fc1cncc(Nc2nc(Nc3ccn4ccnc4c3)cc(N3CCOCC3)n2)c1 [Example 6, N2-(5-Fluoropyridin-3-yl)-N 4-(imidazo[1,2-a]pyridin-7-yl)-6-morpholinopyrimidine-2,4-diamine] | 100 to 1000 nM | 100 to 1000 nM |  |  |
| c1cc(CCN2CCCC2)nc(Nc2nc(Nc3ccn4ccnc4c3)cc(N3CCCC3)n2)c1 [Example 163, N4-(imidazo[1,2-a]pyridin-7-yl)-6-(pyrrolidin-1-yl)-N2-{6-[2-(pyrrolidin-1-yl)ethyl]pyridin-2-yl}pyrimidine-2,4-diamine triformate] |  |  | 100 to 1000 nM | < 100 nM |
| Cc1cc(C)nc(Nc2nc(Nc3ccn4ccnc4c3)cc(N3CC[C@H](F)C3)n2)c1 [Example 185, (S)-N2-(4,6-dimethylpyridin-2-yl)-6-(3-fluoropyrrolidin-1-yl)-N4-(imidazo[1,2-a]pyridin-7-yl) pyrimidine-2,4-diamine] | < 100 nM | < 100 nM |  |  |
| COCCc1cccc(Nc2nc(Nc3ccn4ccnc4c3)cc(N3CCCC3)n2)n1 [Example 159, N4-(imidazo[1,2-a]pyridin-7-yl)-N2-[6-(2-methoxyethyl)pyridin-2-yl]-6-(pyrrolidin-1-yl)pyrimidine-2,4-diamine] | < 100 nM | < 100 nM |  |  |
| Cc1ccc(Nc2nc(Nc3ccn4ccnc4c3)cc(N3CCOCC3)n2)nc1 [Example 18, N4-(Imidazo[1,2-a]pyridin-7-yl)-N2-(5-methylpyridin-2-yl)-6-morpholinopyrimidine-2,4-diamine] | < 100 nM | < 100 nM |  |  |
| Cc1cccc(Nc2nc(N)cc(Nc3ccn4ccnc4c3)n2)n1 [Example 54, N4-(Imidazo[1,2-a]pyridin-7-yl)-N2-(6-methylpyridin-2-yl) pyrimidine-2,4,6-triamine] | < 100 nM | < 100 nM |  |  |
| Cc1nc(Nc2nc(Nc3ccn4ccnc4c3)cc(N3CCCCC3)n2)ccc1Cl [Example 203, N2-(5-chloro-6-methylpyridin-2-yl)-N4-(imidazo[1,2-a]pyridin-7-yl)-6-(piperidin-1-yl) pyrimidine-2,4-diamine] | 100 to 1000 nM | 100 to 1000 nM |  |  |
| CCOc1ccnc(Nc2nc(Nc3ccn4ccnc4c3)cc(N3CCCC3)n2)c1 [Example 145, N2-(4-ethoxypyridin-2-yl)-N4-(imidazo[1,2-a]pyridin-7-yl)-6-(pyrrolidin-1-yl)pyrimidine-2,4-diamine] | 100 to 1000 nM | < 100 nM |  |  |
| Cc1cccc(Nc2nc(Nc3ccn4ccnc4c3)cc(-n3ccnc3)n2)n1 [Example 41, N4-(imidazo[1,2-a]pyridin-7-yl)-6-(1H-imidazol-1-yl)-N2-(6-methylpyridin-2-yl)pyrimidine-2,4-diamine] | 100 to 1000 nM | < 100 nM |  |  |
| Cc1cc(C)nc(Nc2nc(Nc3ccn4ccnc4c3)cc(N3C[C@@H]4OCCO[C@@H]4C3)n2)c1 [Example 194, N2-(4,6-dimethylpyridin-2-yl)-N4-(imidazo[1,2-a]pyridin-7-yl)-6-[(4aR,7aS)-tetrahydro-2H-[1,4]dioxino[2,3-c]pyrrol-6(3H)-yl]pyrimidine-2,4-diamine] | < 100 nM | < 100 nM |  |  |
| c1cc(Nc2nc(Nc3ccn4ccnc4c3)cc(N3CCCCC3)n2)nc(C2CC2)c1 [Example 96, N2-(6-cyclopropylpyridin-2-yl)-N4-(imidazo[1,2-a]pyridin-7-yl)-6-(piperidin-1-yl)pyrimidine-2,4-diamine] | 100 to 1000 nM | 100 to 1000 nM |  |  |
| CN1CCC(Oc2ccc(Nc3nc(Nc4ccn5ccnc5c4)cc(N4CCOCC4)n3)cn2)CC1 [Example 89, N4-(imidazo[1,2-a]pyridin-7-yl)-N2-(6-((1-methylpiperidin-4-yl)oxy)pyridin-3-yl)-6-morpholinopyrimidine-2,4-diamine] | 100 to 1000 nM | < 100 nM |  |  |
| CCCCc1cccc(Nc2nc(Nc3ccn4ccnc4c3)cc(N3CCC4(CCCC4)C3)n2)n1 [Example 173, N2-(6-butylpyridin-2-yl)-N4-(imidazo[1,2-a]pyridin-7-yl)-6-(2-azaspiro[4.4]nonan-2-yl) pyrimidine-2,4-diamine] | 100 to 1000 nM | 100 to 1000 nM |  |  |
| c1cc(Nc2nc(Nc3ccn4ccnc4c3)cc(N3CCOCC3)n2)ncn1 [Example 22, N4-(Imidazo[1,2-a]pyridin-7-yl)-6-morpholino-N2-(pyrimidin-4-yl)pyrimidine-2,4-diamine] | 100 to 1000 nM | 100 to 1000 nM |  |  |
| Cc1ccc(Nc2nc(Nc3ccn4ccnc4c3)cc(N3CCN(C)[C@@H](C)C3)n2)nc1 [Example 37, (S)-6-(3,4-dimethylpiperazin-1-yl)-N4-(imidazo[1,2-a]pyridin-7-yl)-N2-(5-methylpyridin-2-yl)pyrimidine-2,4-diamine] | 1000 to 10000 nM | 1000 to 10000 nM |  |  |
